Earlier results in patent US20240226016A1, “STARCH BASED PRINTABLE MATERIALS” (ROQUETTE FRERES, priority 2021, published 2024).

- solubility in water (class): freely soluble in water
Structure (SMILES): Cn1c(=O)c2c(ncn2CC(O)CO)n(C)c1=O (stereo not shown) [diprophylline]
